Each structure is given as a SMILES string. Structures can show the parent of a compound that is named as a salt. Bounds are passed on as bounds.

One assay deals with APO-induced sniffing. The assay is described as follows: Inhibition of APO-induced sniffing stereotypy. It is filed as in vivo, CD-1 (Charles River) male mice. Particulars: for ED50: Mus musculus, po, mice, 1 mg/kg s.c. apomorphine 60 min after pretreatment; for Sniff./Climb. ratio: ratio of ED50 sniffing to ED50 climbing, p.o.
The target of the next assay is D-2 dopamine receptor (Homo sapiens, UniProt P14416). Kind of assay: biochemical. Type of assay: binding. The note with it: 0.5 nM 3H-spiperone.
The next assay addresses α-1 receptor. The assay is described as follows: Alpha-1 receptor binding (3H-prazosin). How it is done: The non-specific binding was measured with 10 μM (±)-phentolamine.
For assay [1], the target named is T1, 5-HT1A subtype of serotonin receptor (Rattus norvegicus, UniProt P19327).
T1 sequence (P19327 1-422): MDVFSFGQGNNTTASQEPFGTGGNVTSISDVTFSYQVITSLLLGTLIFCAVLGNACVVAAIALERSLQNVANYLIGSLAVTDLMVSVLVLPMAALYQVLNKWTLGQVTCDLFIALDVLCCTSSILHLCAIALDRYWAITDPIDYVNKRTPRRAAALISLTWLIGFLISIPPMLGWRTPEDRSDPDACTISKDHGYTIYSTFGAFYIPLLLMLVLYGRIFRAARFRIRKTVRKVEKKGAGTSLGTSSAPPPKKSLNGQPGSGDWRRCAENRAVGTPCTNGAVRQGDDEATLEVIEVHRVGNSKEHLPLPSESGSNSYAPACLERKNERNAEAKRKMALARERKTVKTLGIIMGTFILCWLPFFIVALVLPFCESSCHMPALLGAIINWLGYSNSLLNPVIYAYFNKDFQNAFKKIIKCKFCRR
Kind of assay: biochemical. Particulars: for IC50: 0.5 nM 3H-8-OH-DPAT; for D-2/5-HT1A ratio: ratio of receptor IC50 values. It is filed as binding.
Experimental: Determination of the 5-HT1A subtype of serotonin receptor was carried out by a modification [M. D. Hall et al.: J. Neurochem. […] 0.5 nM ^3 H-8-OH-DPAT was used as ligand, where non-specific binding was determined by using 10 μM serotonin.

The next assay has as its system APO-induced climbing. The assay is described as follows: Inhibition of apomorphine (APO) induced climbing. Type of assay: in vivo, CD-1 (Charles River) male mice. Particulars: for ED50: Mus musculus, po, mice, 1 mg/kg s.c. apomorphine 60 min after pretreatment. How it is done:
CD-1 (Charles River) male mice weighing 22 to 24 g were pretreated with 1% Tween 80 solution of the compound to be tested. […] Six animals were used in each group. At 60 minutes after pretreatment, the animals were treated subcutaneously with 1 mg/kg of apomorphine (APO). From the 10th to 25th minute following APO treatment the animals were scored in each minute as follows: 0: all the four legs of the animal are on the ground; 1: the animal climbs on the grid by its both forelegs; 2: the animal climbs on the grid by all its four legs. The inhibitory effect was related to the APO control group, which could achieve 32 scores as a maximum.

D-2 dopamine receptor, sequence (P14416 whole entry): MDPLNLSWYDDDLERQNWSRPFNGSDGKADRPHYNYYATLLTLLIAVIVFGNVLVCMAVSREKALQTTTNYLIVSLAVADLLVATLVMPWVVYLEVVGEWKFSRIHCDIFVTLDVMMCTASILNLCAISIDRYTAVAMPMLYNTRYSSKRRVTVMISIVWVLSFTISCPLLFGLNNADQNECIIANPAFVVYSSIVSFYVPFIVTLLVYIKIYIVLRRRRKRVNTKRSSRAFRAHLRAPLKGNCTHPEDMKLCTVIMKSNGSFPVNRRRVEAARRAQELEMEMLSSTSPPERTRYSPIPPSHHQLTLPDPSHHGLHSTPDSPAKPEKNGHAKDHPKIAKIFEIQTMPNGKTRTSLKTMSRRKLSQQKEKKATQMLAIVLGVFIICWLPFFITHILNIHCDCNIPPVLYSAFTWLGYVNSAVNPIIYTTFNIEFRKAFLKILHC

For `COc1ccccc1N1CCN(CCCOc2ccc(-c3cn4cccnc4n3)cc2)CC1` [Compound 4510424, 1-(2-Methoxyphenyl)-4-{3-[4-(2-imidazo[1,2-a]pyrimidinyl)phenoxy]propyl}piperazine], the ED50 was more than 30 mg/kg in the assay with APO-induced sniffing and 8.9 mg/kg with APO-induced climbing. In the assay on APO-induced sniffing, the Sniff./Climb. ratio was determined as 3.4. Besides, the values for the IC50 (against D-2 dopamine receptor; at α-1 receptor; in assay [1]) were 34 nM, 30 nM and 66 nM, respectively.
Regarding `COc1ccccc1N1CCN(CCOc2ccc(-c3cn4cccnc4n3)cc2)CC1` [Compound 4510411, 1-(2-Methoxyphenyl)-4-{2-[4-(2-imidazo[1,2-a]pyrimidinyl)phenoxy]ethyl}piperazine], the ED50 was more than 30 mg/kg with APO-induced sniffing and 3.4 mg/kg in the assay on APO-induced climbing. The Sniff./Climb. ratio in the assay with APO-induced sniffing was more than 8.8. Besides, the 50% inhibitory concentration (IC50) came to 133 nM at D-2 dopamine receptor, 63 nM at α-1 receptor and 10 nM in assay [1]. Besides, the “ED50 values (climbing) compared with clozapine, in words” value with APO-induced climbing (oral, relative to clozapine) is on record as “lower than or equal to that of clozapine”.
Consider `COc1ccccc1N1CCN(CCCCOc2ccc(-c3cn4ccccc4n3)cc2)CC1` [Compound 4510915, 1-(2-Methoxyphenyl)-4-{4-[4-(2-imidazo[1,2-a]pyridinyl)phenoxy]butyl}piperazine], for which the IC50 on D-2 dopamine receptor is 69 nM; on α-1 receptor, 34 nM; in assay [1] it was 21 nM. Also, the ED50 in the assay with APO-induced climbing is 10.7 mg/kg.
Consider `COc1ccccc1N1CCN(CCCCOc2ccc(-c3cc4ccccn4c3)cc2)CC1` [Compound 4510613, 1-(2-Methoxyphenyl)-4-{4-[4-(2-indolizinyl)phenoxy]butyl}piperazine], for which the ED50 in the assay on APO-induced sniffing is more than 30 mg/kg; in the assay on APO-induced climbing it was 14.8 mg/kg. Also, in the assay with APO-induced sniffing, the Sniff./Climb. ratio was more than 2.0. The IC50 at D-2 dopamine receptor was determined as 99 nM; at α-1 receptor it was 842 nM; in assay [1], 243 nM.
As for `COc1ccccc1N1CCN(CCOc2ccc(-c3cn4c(n3)SCC4)cc2)CC1` [Compound 4510471, 1-(2-Methoxyphenyl)-4-{2-[4-[6-(2,3-dihydroimidazo[2,1-b]thiazol)-yl]phenoxy]ethyl}piperazine trihydrochloride], the ED50 is more than 30 mg/kg in the assay with APO-induced sniffing and 6.3 mg/kg in the assay on APO-induced climbing. Further, the Sniff./Climb. ratio with APO-induced sniffing is on record as 4.8. Besides, the IC50 is 117 nM at D-2 dopamine receptor, 75 nM at α-1 receptor and 29 nM in assay [1].
Consider `COc1ccccc1N1CCN(CCCOc2ccc(-c3cc4ccccn4c3)cc2)CC1.Cl.Cl` [Compound 4510423, 1-(2-Methoxyphenyl)-4-{3-[4-[2-indolizinyl)phenoxy]propyl}piperazine dihydrochloride], for which the ED50 in the assay on APO-induced sniffing was more than 10 mg/kg; with APO-induced climbing, 4.1 mg/kg. Besides, in the assay with APO-induced sniffing, the Sniff./Climb. ratio is more than 2.4. In addition, the IC50 against D-2 dopamine receptor stood at 77 nM; at α-1 receptor, 359 nM; in assay [1] it was 1000 nM.
With `COc1ccccc1N1CCN(CCCCOc2ccc(-c3cn4c(n3)SCC4)cc2)CC1` [Compound 4510991, 1-(2-Methoxyphenyl)-4-{4-[4-[6-(2,3-dihydroimidazo[2,1-b]thiazol)-yl]phenoxy]butyl}piperazine], the ED50 was more than 30 mg/kg in the assay on APO-induced sniffing and approximately 30 mg/kg in the assay on APO-induced climbing. For the same compound, in the assay on APO-induced sniffing, the Sniff./Climb. ratio is more than 1.0. The results for the IC50 (against D-2 dopamine receptor; on α-1 receptor; in assay [1]) were 56 nM, 16 nM and 9 nM, respectively. The “activity on 5-HT1A receptor subtypes, in words” value in assay [1] is “especially strong activity”.
Regarding `COc1ccccc1N1CCN(CCCOc2ccc(-c3cn4ccsc4n3)cc2)CC1` [Compound 4510472, 1-(2-Methoxyphenyl)-4-{3-[4-[6-imidazo[2,1-b]thiazolyl)phenoxy]propyl}piperazine], the ED50 in the assay on APO-induced sniffing is approximately 10 mg/kg; in the assay on APO-induced climbing it was 3.4 mg/kg. Further, in the assay on APO-induced sniffing, the Sniff./Climb. ratio is listed as 2.9. In addition, the IC50 against D-2 dopamine receptor is 23 nM; on α-1 receptor it was 56 nM; in assay [1], 96 nM. Also, the “ED50 values (climbing) compared with clozapine, in words” value with APO-induced climbing (oral, relative to clozapine) is listed as “lower than or equal to that of clozapine”.
In the case of `COc1ccccc1N1CCN(CCCOc2ccc(-c3cn4c(n3)SCC4)cc2)CC1` [Compound 4510473, 1-(2-Methoxyphenyl)-4-{3-[4-[6-(2,3-dihydroimidazo[2,1-b]thiazol)yl]phenoxy]jpropyl}piperazine], the ED50 is more than 30 mg/kg in the assay with APO-induced sniffing and 15.3 mg/kg in the assay with APO-induced climbing. Besides, the Sniff./Climb. ratio in the assay with APO-induced sniffing is more than 2.0. In addition, the IC50 at D-2 dopamine receptor was 29 nM; at α-1 receptor, 48 nM; in assay [1] it was 122 nM.
Regarding `COc1ccccc1N1CCN(CCCCOc2ccc(-c3cn4cccnc4n3)cc2)CC1` [Compound 4510645, 1-(2-Methoxyphenyl)-4-{4-[4-(2-imidazo[1,2-a]pyrimidinyl)phenoxy]butyl}piperazine], the ED50 was more than 30 mg/kg with APO-induced sniffing and 20.5 mg/kg in the assay with APO-induced climbing. Also, the Sniff./Climb. ratio with APO-induced sniffing is recorded as more than 1.5. Also, the IC50 against D-2 dopamine receptor was 55 nM; at α-1 receptor it was 22 nM; in assay [1], 12 nM.
Consider `COc1ccccc1N1CCN(CCCOc2ccc(-c3cn4ccccc4n3)cc2)CC1` [Compound 4510067, 1-(2-Methoxyphenyl)-4-{3-[4-(2-imidazo[1,2-a]pyridinyl)phenoxy]propyl}piperazine], for which the ED50 is 16.2 mg/kg in the assay with APO-induced sniffing and 7.2 mg/kg in the assay with APO-induced climbing. Besides, in the assay on APO-induced sniffing, the Sniff./Climb. ratio was found to be 2.3. The concentration for half-maximal inhibition (IC50) on D-2 dopamine receptor stood at 17 nM; at α-1 receptor, 57 nM; in assay [1], 202 nM.
Turning to `COc1ccccc1N1CCN(CCCCOc2ccc(-c3cn4ccsc4n3)cc2)CC1.Cl.Cl.Cl` [Compound 4510916, 1-(2-Methoxyphenyl)4-{4-[4-[6-imidazo[2,1-b]thiazolyl]phenoxy]butyl}piperazine trihydrochloride], in the assay on APO-induced sniffing, the ED50 was approximately 30 mg/kg and the Sniff./Climb. ratio is given as more than 4.9. Moreover, on D-2 dopamine receptor, the half-maximal inhibitory concentration (IC50) amounted to 55 nM. In addition, at α-1 receptor, the IC50 was 28 nM. In assay [1], the “activity on 5-HT1A receptor subtypes, in words” value is reported as “especially strong activity”; half-maximal inhibition (IC50) was put at 8 nM; the D-2/5-HT1A ratio was found to be 6.9. Moreover, the ED50 in the assay with APO-induced climbing was 6.1 mg/kg.
Consider `COc1ccccc1N1CCN(CCOc2ccc(-c3cc4ccccn4c3)cc2)CC1.Cl.Cl` [Compound 4510407, 1-(2-Methoxyphenyl)-4-{2-[4-(2-indolizinyl)phenoxy]ethyl}piperazine dihydrochloride], for which the figures for the IC50 (at D-2 dopamine receptor; on α-1 receptor; in assay [1]) were 258 nM, 542 nM and 802 nM, respectively. Further, the ED50 in the assay on APO-induced climbing was more than 30 mg/kg.
As for `COc1ccccc1N1CCN(CCOc2ccc(-c3cn4ccccc4n3)cc2)CC1` [Compound 4510408, 1-(2-Methoxyphenyl)-4-{2-[4-(2-imidazo[1,2-a]pyridinyl)phenoxy]ethyl}piperazine], the ED50 in the assay with APO-induced sniffing was approximately 10 mg/kg; in the assay with APO-induced climbing, 2.4 mg/kg. For the same compound, the Sniff./Climb. ratio in the assay on APO-induced sniffing is recorded as 4.1. The IC50 came to 56 nM against D-2 dopamine receptor, 36 nM at α-1 receptor and 70 nM in assay [1]. For the same compound, the “ED50 values (climbing) compared with clozapine, in words” value in the assay with APO-induced climbing (oral, relative to clozapine) is “lower than or equal to that of clozapine”.
Take `COc1ccccc1N1CCN(CCOc2ccc(-c3cn4ccsc4n3)cc2)CC1.Cl.Cl.Cl` [Compound 4510470, 1-(2-Methoxyphenyl)-4-{2-[4-[6-imidazo[2,1-b]thiazolyl]phenoxy]ethyl}piperazine trihydrochloride]: the median effective dose (ED50) in the assay with APO-induced sniffing worked out at 4.5 mg/kg; with APO-induced climbing it was 0.8 mg/kg. Further, in the assay on APO-induced sniffing, the Sniff./Climb. ratio stood at 5.6. Moreover, the IC50 against D-2 dopamine receptor was determined as 73 nM; on α-1 receptor it was 101 nM; in assay [1], 38 nM. Further, in assay [1], the D-2/5-HT1A ratio is recorded as 1.9. For the same compound, the “oral activity as compared to clozapine” value with APO-induced climbing (oral, relative to clozapine) is recorded as “ten-fold”.

The ED50 is the midpoint of the dose-response relation. The term IC50 denotes the midpoint of a concentration-inhibition curve. The low end stands for greater potency in that assay, the high end for weaker potency in that assay.

The values above are taken from US6103724A, “2-methoxyphenylpiperazine derivatives” (Richter Gedeon Vegyeszeti Gyar Rt., priority 1996, dated 2000).
